Source: US7339042B2, “Gene delivery to tumors” (University of Florida Research Foundation, Inc., priority 2003, dated 2008)
“Also recorded” adds a separate entry of the source. No end group written: not given here.

Legend:
[1] = test system: endothelial cells and smooth muscle cells of rat cerebral arteries; experiment: Uptake of fluorescent peptides by pressure-mounted rat cerebral arteries; type: cell-based
Procedure: Tat-P16 peptides were prepared and labeled with fluorescein for use in uptake studies using intact blood vessels isolated from rat brain. Blood vessels were dissected from rat brain and stabilized in an isolated perfusion system in which vessels were attached on either end to catheters and placed under physiological pressure. Following a 10 minute perfusion of the isolated vessels with flurorescent Tat-P16 peptide (1 μM), vessels were examined for uptake of the peptides. […] Within the endothelial cells, the labeled peptides were seen to be localized to the cell nuclei, further confirming uptake of the peptides by the cells.
The peptides are fairly labile in the media and approximately 50% are degraded upon incubation at 37° C. in complete media (qualitative analysis by PAGE) after 1 hour. […] Uptake of these peptides and cell killing activity was tested in a 3 dimensional organ culture using rat cerebral arteries cultured under physiological pressure and flow. A segment of the rat cerebral artery is surgically removed and placed in ringer's solution. Using a surgical stereoscope, the blood vessel is tied at either end to two cannulas on a teflon stage. Ringer's solution is perfused through the lumen of the vessel at a constant rate that maintains physiologic hydrostatic pressure. The fluorescent peptide was introduced intraluminally by perfusing a 1 μM solution of peptide through the lumen over a 10 minute period.
Rats were anesthetized by intraperitoneal injection of pentobarbital sodium (160 mg/kg) and killed by decapitation. The brain was removed and placed in an ice-cold oxygenated physiological cerebrospinal fluid (PCSF, see below for composition). Cerebellar arteries were isolated and mounted in an arteriograph as described previously (Knot and Nelson 1998). The arteriograph was placed on an inverted microscope and the artery was visualized with a monochrome CCD camera coupled to a calibrated video caliper system to measure arterial diameter. The arteries were slowly pressurized to 70 mmHg under no flow conditions using a pressure servo-null system (Living Systems Inc., Burlington Vt.), and warmed to 37° C. while being continuously superfused (5 ml/min) with PCSF bubbled with 21% O2, 5% CO2, 74% N2 (pH 7.35-7.40 in the bath). […] Myogenic tone is calculated by the following equation: Myogenic tone=(Dp−Da)/Dp×100
(§1) In some experiments, the arterial segments were denuded of endothelium by passing an air bubble through the lumen, thus exposing the smooth muscle cells to luminally administered peptides. Constriction to pressure and 60 mM KCl and dilation of arteries with myogenic tone to 16 mM KCl were used as benchmarks of functional arteries. Peptide containing PCSF was perfused intraluminally at an inlet pressure of 70 mmHg with the outlet open, for 20 min and then perfused with normal PCSF. This procedure ensures a 20 min of exposure of the arteries to the peptide.

rat cerebral arteries [2] = experiment: Vasodilation and vasoconstriction response of rat cerebral arteries before and after peptide; type: cell-based; details: after vs before intraluminal peptide
Procedure: The blood vessels were put in culture described above and perfused with buffer of the same composition as cerebrospinal fluid. Vessel diameter was measured before and after administration of each reagent. 3 μM of each peptide was perfused through for 10 minutes followed by a 10 minute wash through. Vasoconstriction and vasodilation were determined for each vessel before peptide was applied. Perfusion was continued until the vessels relaxed to their original diamter (approximately 30 minutes). The vasoconstriction and vasodilation reponse was remeasured after the 10 minute wash through. The 60 mM KCl and 16 mM KCl conditions are […], respectively. Histamine and Bradykinin are endothelial cell vasodilators.
as §1
(§2) Effect of peptide on endothelial and smooth muscle function was evaluated by histamine (0.3 and 1 μM) and bradykinin (0.5 μM) (endothelium-dependent vasodilators) and 16 and 60 mM KCl (results in dilation and constriction of arteries by hyperpolarizing and depolarizing smooth muscle, respectively). These drug solutions were added to the superfusate and applied to the arteries extraluminally for 10 to 15 min before and after intraluminal perfusion with peptides. Effects of these agents were expressed as percent change in myogenic tone (decrease for dilators and increase for constrictors). Experiments were concluded by exposing the arteries to calcium free PCSF to obtain the passive diameter. Cell viability was determined by adding H3334 (Hoechst viability stain, final concentration 1 μM) and propidium iodide (final concentration 1 μM) to the arteriograph after the peptide incubation. Fluorescent micrographs were taken of the vessels after incubation with peptides and following addition of the vital stains using Till Photonics imaging system (Martinsried, Germany).

rat cerebral arteries [3] = experiment: Cell viability staining of arteries (propidium iodide, H3334) after peptide; type: cell-based; details: after treatment with peptide
Procedure: No PI statined smooth muscle cell nuclei were observed.
as §2

HIV = details: cited from earlier work
[4] = test system: HUVEC attachment to vitronectin coated plates; details: read-out: IC50 for inhibiting HUVEC attachment to vitronectin coated plates; cited from earlier work
RG2 cells [5] = experiment: Fusion peptide cell killing, propidium iodide/FACS viability, RG2 cells; type: cell-based, rat
Procedure: (§3) Other experiments were performed using two glioma cell lines, i.e., T98G and RG2. 1×10^6 cells per well were incubated in 6-well plates with peptides in complete media for 1 hr. Cells were removed from the plate using a cell stripper and the percentage of viable cells was determined by staining with propidium iodide and analyzing by fluorescence activated cell sorting (FACS).
There are 4 conserved amino acid differences between the rat and human CDKI sequence. Both sequences were attached to Tat and tested for cell killing activity in the rat glioma RG2 cells. Also the effect of orientation of the Tat and CDKI domains were tested. RG2 cells were plated on 6 well plates at approximately 70% confluency. Each of the peptides was added to the wells with increasing concentration. After 1 hr, cells were removed from the plates, washed 2× with PBS, stained with propidium iodide and analyzed by FACS for viable cells.
(§4) Cell viability studies were performed by plating the cells under the same conditions as the uptake studies. Cells were incubated with fluorescent peptides for 1 hr at 37° C. The cells were removed from the plate using cell striper. They were labeled with propidium iodide and fluorescein-AM. Percent PI positive cells were determined by FACS.
The cytotoxicity of the chimeric peptides was characterized using a cell viability assay. Peptides were added to cells at a fixed concentration. After a 30-minute incubation, cells were removed from the plate, stained with propidium iodide and the % positive cells were determined by FACS (fluorescent activated cell scanning). The test conditions were Tat, ANT, Tat-P14ARF, ANT-P14ARF and P14ARF. T98G cells were tested along with RG2 cells and A172 cells.

A172 cells = experiment: Fluorescein peptide uptake by A172 cells, fluorescence microscopy; type: cell-based, human
Procedure: (§5) For fluorescent microscopy studies cells were plated on 2 chamber cover slips at a density of 1×10^4 cells/chamber. Cells were incubated with […] peptide for 30 minutes in completed media, washed with PBS 3× and imaged using a Nikon Axiophot inverted fluorescent microscope. Images were taken using a Spot CCD camera.
Synthetic peptides derived from HIV Tat (Tat) and the Drosophila antennaepedia homeodomain (ANT) were tested for cell uptake by A172 cells (human glioblastomas). The peptides were labeled at the N-terminus with fluorescein. Cells were incubated with 30 uM peptide at 37° C. in serum containing media. Fluorescent micrographs were taken after 1 hr incubation at 37° C. […] The size of the peptide was increased by added an Mdm-2 binding domain derived from P14ARF. This domain was added to the C-terminus of the Tat and ANT peptides. The P14ARF domain was also placed at the N-terminus followed by the Tat peptide. All the peptides were labeled at the N-terminus with fluorescein and cell incubations similar to the Tat and ANT peptides were tested for cellular uptake. […] Both the bright field and fluorescent micrographs show altered cell morphology.

RG2 cells [6] = experiment: Fluorescein peptide uptake by RG2 cells, fluorescence microscopy; type: cell-based, rat
Procedure: as §5
Similar observations were obtained for all the peptides in another human glioblastoma cell line, T98G.

[7] = test system: T98G cells, RG2 cells and A172 cells; experiment: Cell viability assay of chimeric peptides in three cell types; type: cell-based, human and rat; details: fixed concentration, 30-minute incubation
Procedure: Synthetic peptides labeled with an N-terminal fluorescein were synthesized to test the ability of a shuttle domain to enter brain tumor and endothelial cells. The amino acid sequences for the shuttle domain was derived from HIV Tat amino acid 47 to 56 ([…] SEQ ID NO:23)(Robert-Guroff et al., J. Virol. 64:3391-3398, 1990) to which AGGG was added to the N-terminus, and the antennapedia homeodomain from drosophila (ANT) ([…] SEQ ID NO:24) (Astriab-Fisher et al., Pharm. Res., 19:744-754, 2002). A synthetic peptide (PTD-5) reported to have similar properties as Tat and ANT was also tested (Mai J. C. et al, Cancer Res. 2001; 61: 7709-7712.). Uptake was tested in two human glioblastoma cell lines and a rat glioma cell line, the latter being used for the rat brain tumor model. A 1 μM concentration of each peptide was added to 10^6 cells in a 6 well plate. […] The Tat and ANT peptides were doubled in length by the addition of […] (SEQ ID NO: 25), amino acids 42 to 55 from a human cyclin-dependent kinase inhibitor 2A (melanoma, p16, inhibits CDK4) (CDKI), transcript variant 4, mRNA (accession no. NM_058195). […]
The cytotoxicity of the chimeric peptides was characterized using a cell viability assay. […] After a 30-minute incubation, cells were removed from the plate, stained with propidium iodide and the % positive cells were determined by FACS (fluorescent activated cell scanning). […]

[8] = test system: two human glioblastoma cell lines and a rat glioma cell line; experiment: Fluorescein peptide uptake, fluorescence microscopy, three glioma lines; type: cell-based; details: 1 μM peptide, 10^6 cells, all three cell types
Procedure: Synthetic peptides labeled with an N-terminal fluorescein were synthesized to test the ability of a shuttle domain to enter brain tumor and endothelial cells. The amino acid sequences for the shuttle domain was derived from HIV Tat amino acid 47 to 56 ([…] SEQ ID NO:23)(Robert-Guroff et al., J. Virol. 64:3391-3398, 1990) to which AGGG was added to the N-terminus, and the antennapedia homeodomain from drosophila (ANT) ([…] SEQ ID NO:24) (Astriab-Fisher et al., Pharm. Res., 19:744-754, 2002). A synthetic peptide (PTD-5) reported to have similar properties as Tat and ANT was also tested (Mai J. C. et al, Cancer Res. 2001; 61: 7709-7712.). Uptake was tested in two human glioblastoma cell lines and a rat glioma cell line, the latter being used for the rat brain tumor model. A 1 μM concentration of each peptide was added to 10^6 cells in a 6 well plate. […] The Tat and ANT peptides were doubled in length by the addition of […] (SEQ ID NO: 25), amino acids 42 to 55 from a human cyclin-dependent kinase inhibitor 2A (melanoma, p16, inhibits CDK4) (CDKI), transcript variant 4, mRNA (accession no. NM_058195). This domain binds MDM2 and inhibit ubiquination of P53, a tumor suppressor protein. […] Only the combination of Tat-CDKI was toxic to the cells, 65% killing for T98G and 61% killing for RG2 cells. […] Similar results were obtained with A172 cells. […]

[9] = test system: endothelial cells and smooth muscle cells of rat cerebral arteries; experiment: Uptake of fluorescent peptides by pressure-mounted rat cerebral arteries; type: cell-based; details: extraluminal addition
Flk-1 = Flk-1 (Homo sapiens, UniProt P35968); details: cited from earlier work
T98G cells = experiment: Fusion peptide cell killing, propidium iodide/FACS viability, T98G cells; type: cell-based, human; details: 10 μM peptide, 1 hr
Procedure: as §3, §4

[10] = intraluminal perfusion of fluorescent peptide

Flk-1, sequence (P35968 20-1356, species assumed): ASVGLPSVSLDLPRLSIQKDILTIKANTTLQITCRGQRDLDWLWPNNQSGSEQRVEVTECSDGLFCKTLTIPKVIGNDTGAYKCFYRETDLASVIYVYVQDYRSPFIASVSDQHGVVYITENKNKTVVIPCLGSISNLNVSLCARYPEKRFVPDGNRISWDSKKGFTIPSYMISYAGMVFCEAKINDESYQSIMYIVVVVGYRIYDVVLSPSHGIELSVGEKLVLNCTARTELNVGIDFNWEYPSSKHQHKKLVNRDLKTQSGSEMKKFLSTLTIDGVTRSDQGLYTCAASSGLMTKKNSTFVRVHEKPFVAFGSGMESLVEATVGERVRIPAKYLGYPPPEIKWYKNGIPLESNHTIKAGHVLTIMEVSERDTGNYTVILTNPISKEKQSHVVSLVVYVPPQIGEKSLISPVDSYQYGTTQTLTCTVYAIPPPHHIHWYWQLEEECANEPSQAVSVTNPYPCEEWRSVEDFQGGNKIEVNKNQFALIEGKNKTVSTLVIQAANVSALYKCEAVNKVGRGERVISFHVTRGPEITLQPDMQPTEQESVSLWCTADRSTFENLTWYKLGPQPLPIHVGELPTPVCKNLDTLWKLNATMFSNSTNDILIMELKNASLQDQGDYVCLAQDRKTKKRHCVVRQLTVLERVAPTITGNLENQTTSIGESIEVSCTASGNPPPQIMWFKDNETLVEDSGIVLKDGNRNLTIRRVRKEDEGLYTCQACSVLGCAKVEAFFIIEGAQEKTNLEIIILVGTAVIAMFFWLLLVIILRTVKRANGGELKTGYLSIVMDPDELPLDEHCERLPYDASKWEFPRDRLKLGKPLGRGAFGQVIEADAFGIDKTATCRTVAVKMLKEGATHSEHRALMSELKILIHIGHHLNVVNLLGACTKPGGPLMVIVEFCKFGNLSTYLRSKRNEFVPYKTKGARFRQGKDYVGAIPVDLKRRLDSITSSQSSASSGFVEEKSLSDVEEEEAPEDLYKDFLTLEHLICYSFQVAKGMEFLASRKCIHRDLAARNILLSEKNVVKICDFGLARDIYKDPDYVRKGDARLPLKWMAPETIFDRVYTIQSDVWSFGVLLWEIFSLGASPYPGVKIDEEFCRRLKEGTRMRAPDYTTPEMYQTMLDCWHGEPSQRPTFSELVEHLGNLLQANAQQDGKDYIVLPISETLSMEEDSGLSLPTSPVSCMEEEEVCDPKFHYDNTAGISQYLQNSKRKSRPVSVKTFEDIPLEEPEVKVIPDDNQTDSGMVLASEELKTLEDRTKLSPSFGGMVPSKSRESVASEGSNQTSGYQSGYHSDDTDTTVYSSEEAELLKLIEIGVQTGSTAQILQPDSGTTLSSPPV

Substance: AGGGYGRKKRRQRRRMGRRFVVTVRIRRT [Tat-rat P14ARF]
- morphology of the endothelial cells ([1]; after intraluminal exposure): morphology of the endothelial cells was altered
- labeling/uptake by endothelial cells [1, 10]: restriction of labeling to the endothelial cells
- endothelium-dependent dilation to histamine and bradykinin (rat cerebral arteries [2]): inhibition of vasodilation
- smooth muscle response to 60 and 16 mM KCl (rat cerebral arteries [2]): no effect
- propidium iodide staining of blood vessels (rat cerebral arteries [3]): only the endothelial cells were affected

Substance: RRNalCYCitKdEPYRCitCR [CXCR4 peptide]
- IC50 for inhibiting HIV (HIV): in the nM range

Substance: CDMRGDMFC [αvβ3 integrin binding peptide]
- IC50 [4]: 10 µM

Substance: MVRRFLVTLRIRRAAGGGYGRKKRRQRRR [P14ARF-Tat]
- IC50 (RG2 cells [5]; dose response 1 μM to 10 μM): 3 µM
- staining pattern (cell uptake) (A172 cells; 30 uM peptide, 1 hr, 37° C., serum containing media): nuclear staining
- cell density (A172 cells; A172 cells, 1-hour incubation): reduced cell density
- cell density (RG2 cells [6]): reduced cell density compared to TatP14ARF
- staining pattern (cell uptake) (RG2 cells [6]): nuclear staining

Substance: RQIKIWFQNRRMKWKK-MVRRFLVTLRIRRA [ANT-P14ARF]
- staining pattern (cell uptake) (RG2 cells [6]): intracellular punctate staining

Substance: RQIKIWFQNRRMKWKK [ANT, membrane permeability domain alone, control peptide]
- cells killed [7]: No impact on cell viability
- fluorescence labeling of cells (uptake) [8]: stained the cytoplasm
- fluorescent intensity (degree of cell uptake) (A172 cells; 30 uM peptide, 1 hr, 37° C.): greater for the ANT peptide than the Tat peptide
- labeling/uptake by endothelial cells [1, 10]: restriction of labeling to the endothelial cells; also recorded: cytoplasmic staining of the endothelial cells
- labeling/uptake by smooth muscle cells [1, 10]: did not label the smooth muscle cells
- labeling of smooth muscle cells [9]: able to label the smooth muscle cells

Substance: HTMYYHHYQHHL [Flk-1 binding peptide]
- IC50 (Flk-1): ~100 µM

Substance: MVRRFLVTLRIRRA [P14ARF]
- % killing (toxicity) (T98G cells): no toxicity
- % killing (toxicity) (RG2 cells [5]; 10 μM peptide, 1 hr): 22%
- reduction in cell viability (RG2 cells [5]; 30-minute incubation): 22%
- endothelium-dependent dilation to histamine and bradykinin (rat cerebral arteries [2]): responsive to all stimuli
- smooth muscle response to 60 and 16 mM KCl (rat cerebral arteries [2]): responsive to all stimuli
